From publication PMC7377474, “Preclinical characterization of CPL302-253, a selective inhibitor of PI3Kδ, as the candidate for the inhalatory treatment and prevention of Asthma” (PLoS ONE, 2020)
Read-outs that look alike come from different tables or passages of the source.

Legend:
basophils = experiment: Basophils activation (Flow CAST Basophil Activation Test); assay type: cell-based, human; settings: for IC50: anti-FcεRI antibody; for IgE (basophil activation, Fig 4D): concentration 0 = 100
Procedure: The study was performed using Flow CAST Basophil Activation Test (Buhlmann) according to manufacturer’s protocol with modifications. In brief to U bottom 96-well plate 50 μl of stimulus solution (stimulating antibody specific for the high-affinity IgE receptor FcεRI) or assay bufferwas added. Subsequently to some wells, 50 μl of inhibitor at different concentrations in assay buffer was added. In the next step 50 μl of EDTA collected fresh human blood was added to each well followed by 50 μl of staining reagent (diluted 2:3 in assay buffer). The cells were incubated for 25 min at 37°Cin humidified incubator in the presence of 5% CO2. After incubation cells were centrifuged and erythrocytes were lysed with pre-warmed (18–28°C) Lysing Reagent. After centrifugation cells were suspended in Wash Buffer and analysed by FACSCalibur. Data were analysed using CellQuestPro and FlowJo software.

PIK3CG = target: T1, PIK3CG (Homo sapiens, UniProt P48736); experiment: KINOMEScan single concentration; assay type: binding; settings: 1 μM
T1 construct: purchased Discoverex (KINOMEscan service)
Procedure: (§1) The inhibitor-kinase binding affinity was assessed in KINOMEscan™ assay (Discoverex) according to service provider’s protocol. In brief, in this binding assay the studied compound in solution is incubated with DNA-tagged kinase and kinase active-site directed ligand bound to the beads. The compound competes for binding to kinase with the immobilized ligand. After incubation beads are removed from the solution and kinase bound to ligand is quantified by qPCR. The strength of compound binding is determined based on its ability to block kinase-ligand binding. 11-point 3-fold serial dilution of CPL302-253 was used in order to determine its binding constants (Kd) against different isotypes of class I PI3K. The single concentration of CPL302-253 was used in order to determine its specificity in abroad panel of 468 human kinases. The measure of compounds affinity to each kinase in the panel was the percentage of kinase activity inhibition by tested ligand in comparison to the control.

PIK3CD = target: T2, PIK3CD (Homo sapiens, UniProt O00329); experiment: KINOMEScan single concentration; assay type: binding; settings: 1 μM
T2 construct: purchased Discoverex (KINOMEscan service)
Procedure: as §1

PIK3CA(E542K) = target: T3, PIK3CA(E542K) (Homo sapiens, UniProt P42336, E542K); experiment: KINOMEScan single concentration; assay type: binding; settings: 1 μM
T3 construct: purchased Discoverex (KINOMEscan service)
Procedure: as §1

ABL1-nonphosphorylated = target: T4, ABL1-nonphosphorylated (Homo sapiens, UniProt P00519); experiment: KINOMEScan single concentration; assay type: binding; settings: 1 μM
T4 construct: purchased Discoverex (KINOMEscan service)
Procedure: as §1

MEK5 = target: T5, MEK5 (Homo sapiens, UniProt Q13163); experiment: KINOMEScan single concentration; assay type: binding; settings: 1 μM
T5 construct: purchased Discoverex (KINOMEscan service)
Procedure: as §1

PIK3CA(E545A) = target: T6, PIK3CA(E545A) (Homo sapiens, UniProt P42336, E545A); experiment: KINOMEScan single concentration; assay type: binding; settings: 1 μM
T6 construct: purchased Discoverex (KINOMEscan service)
Procedure: as §1

PIK3CA(H1047Y) = target: T7, PIK3CA(H1047Y) (Homo sapiens, UniProt P42336, H1047Y); experiment: KINOMEScan single concentration; assay type: binding; settings: 1 μM
T7 construct: purchased Discoverex (KINOMEscan service)
Procedure: as §1

PIK3CA(Q546K) = target: T8, PIK3CA(Q546K) (Homo sapiens, UniProt P42336, Q546K); experiment: KINOMEScan single concentration; assay type: binding; settings: 1 μM
T8 construct: purchased Discoverex (KINOMEscan service)
Procedure: as §1

PIK3CB = target: T9, PIK3CB (Homo sapiens, UniProt P42338); experiment: KINOMEScan single concentration; assay type: binding; settings: 1 μM
T9 construct: purchased Discoverex (KINOMEscan service)
Procedure: as §1

PIK3CA = target: T10, PIK3CA (Homo sapiens, UniProt P42336); experiment: KINOMEScan single concentration; assay type: binding; settings: 1 μM
T10 construct: purchased Discoverex (KINOMEscan service)
Procedure: as §1

PIK3CA(C420R) = target: T11, PIK3CA(C420R) (Homo sapiens, UniProt P42336, C420R); experiment: KINOMEScan single concentration; assay type: binding; settings: 1 μM
T11 construct: purchased Discoverex (KINOMEscan service)
Procedure: as §1

PIK3CA(H1047L) = target: T12, PIK3CA(H1047L) (Homo sapiens, UniProt P42336, H1047L); experiment: KINOMEScan single concentration; assay type: binding; settings: 1 μM
T12 construct: purchased Discoverex (KINOMEscan service)
Procedure: as §1

PIK3CA(M1043I) = target: T13, PIK3CA(M1043I) (Homo sapiens, UniProt P42336, M1043I); experiment: KINOMEScan single concentration; assay type: binding; settings: 1 μM
T13 construct: purchased Discoverex (KINOMEscan service)
Procedure: as §1

ULK2 = target: T14, ULK2 (Homo sapiens, UniProt Q8IYT8); experiment: KINOMEScan single concentration; assay type: binding; settings: 1 μM
T14 construct: purchased Discoverex (KINOMEscan service)
Procedure: as §1

T13 sequence (P42336 whole entry M1043I): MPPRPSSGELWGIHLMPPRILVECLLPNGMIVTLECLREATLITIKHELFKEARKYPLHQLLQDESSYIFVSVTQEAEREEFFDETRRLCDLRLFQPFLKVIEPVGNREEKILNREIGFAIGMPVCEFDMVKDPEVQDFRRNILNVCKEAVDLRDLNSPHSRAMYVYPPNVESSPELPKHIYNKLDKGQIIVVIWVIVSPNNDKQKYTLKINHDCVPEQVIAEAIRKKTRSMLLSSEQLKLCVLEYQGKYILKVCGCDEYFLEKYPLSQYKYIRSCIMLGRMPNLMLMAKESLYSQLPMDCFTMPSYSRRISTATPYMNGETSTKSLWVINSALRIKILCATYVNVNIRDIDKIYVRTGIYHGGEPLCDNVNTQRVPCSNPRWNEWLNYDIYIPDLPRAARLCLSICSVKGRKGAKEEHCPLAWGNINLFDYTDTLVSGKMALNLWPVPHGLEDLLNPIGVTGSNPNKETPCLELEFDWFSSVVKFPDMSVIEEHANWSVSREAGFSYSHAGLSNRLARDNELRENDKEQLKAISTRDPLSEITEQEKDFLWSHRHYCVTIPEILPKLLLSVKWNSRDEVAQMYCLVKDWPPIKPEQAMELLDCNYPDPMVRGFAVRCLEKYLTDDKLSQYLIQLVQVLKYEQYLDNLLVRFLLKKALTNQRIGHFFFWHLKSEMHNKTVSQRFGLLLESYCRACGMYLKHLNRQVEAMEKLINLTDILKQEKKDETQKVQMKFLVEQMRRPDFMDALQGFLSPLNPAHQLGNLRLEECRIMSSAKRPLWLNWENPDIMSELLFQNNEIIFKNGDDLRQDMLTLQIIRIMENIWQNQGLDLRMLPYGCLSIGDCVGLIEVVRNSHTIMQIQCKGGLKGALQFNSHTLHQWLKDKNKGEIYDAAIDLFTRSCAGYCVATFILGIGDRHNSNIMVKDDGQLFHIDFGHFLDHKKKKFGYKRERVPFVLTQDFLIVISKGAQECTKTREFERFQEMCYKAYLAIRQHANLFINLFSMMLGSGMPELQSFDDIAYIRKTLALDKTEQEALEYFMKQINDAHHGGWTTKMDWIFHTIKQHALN
T12 sequence (P42336 whole entry H1047L): as the sequence (P42336 whole entry M1043I) above, with I1043M, H1047L counted along it
T8 sequence (P42336 whole entry Q546K): as the sequence (P42336 whole entry M1043I) above, with Q546K, I1043M counted along it
T9 sequence (P42338 whole entry): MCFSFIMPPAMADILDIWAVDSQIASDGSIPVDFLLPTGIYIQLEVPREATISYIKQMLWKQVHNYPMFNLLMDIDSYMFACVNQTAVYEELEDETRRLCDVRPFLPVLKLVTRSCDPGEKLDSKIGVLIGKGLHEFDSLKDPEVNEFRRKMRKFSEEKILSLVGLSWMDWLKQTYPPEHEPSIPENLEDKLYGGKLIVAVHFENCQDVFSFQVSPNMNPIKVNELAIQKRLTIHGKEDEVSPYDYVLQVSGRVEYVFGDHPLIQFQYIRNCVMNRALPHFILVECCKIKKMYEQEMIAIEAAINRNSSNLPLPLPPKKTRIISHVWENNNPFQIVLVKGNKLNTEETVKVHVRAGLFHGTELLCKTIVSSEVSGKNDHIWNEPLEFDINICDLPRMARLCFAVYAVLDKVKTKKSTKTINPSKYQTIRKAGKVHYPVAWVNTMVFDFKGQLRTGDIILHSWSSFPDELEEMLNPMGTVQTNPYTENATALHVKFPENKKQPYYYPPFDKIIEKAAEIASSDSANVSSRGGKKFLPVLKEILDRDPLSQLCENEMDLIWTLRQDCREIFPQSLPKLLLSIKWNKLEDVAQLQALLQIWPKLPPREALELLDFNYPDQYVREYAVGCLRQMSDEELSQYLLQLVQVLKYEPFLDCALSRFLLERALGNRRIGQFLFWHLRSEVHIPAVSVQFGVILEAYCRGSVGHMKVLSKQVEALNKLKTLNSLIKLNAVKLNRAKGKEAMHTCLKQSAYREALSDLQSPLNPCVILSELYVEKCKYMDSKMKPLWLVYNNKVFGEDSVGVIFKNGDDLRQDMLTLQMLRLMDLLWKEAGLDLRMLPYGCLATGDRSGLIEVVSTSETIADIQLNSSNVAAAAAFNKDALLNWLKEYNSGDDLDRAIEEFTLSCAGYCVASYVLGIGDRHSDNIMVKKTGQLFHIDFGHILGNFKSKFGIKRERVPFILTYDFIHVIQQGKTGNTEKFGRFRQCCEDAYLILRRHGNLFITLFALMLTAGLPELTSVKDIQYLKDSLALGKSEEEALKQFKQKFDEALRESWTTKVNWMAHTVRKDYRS
T7 sequence (P42336 whole entry H1047Y): as the sequence (P42336 whole entry M1043I) above, with I1043M, H1047Y counted along it
T5 sequence (Q13163 whole entry): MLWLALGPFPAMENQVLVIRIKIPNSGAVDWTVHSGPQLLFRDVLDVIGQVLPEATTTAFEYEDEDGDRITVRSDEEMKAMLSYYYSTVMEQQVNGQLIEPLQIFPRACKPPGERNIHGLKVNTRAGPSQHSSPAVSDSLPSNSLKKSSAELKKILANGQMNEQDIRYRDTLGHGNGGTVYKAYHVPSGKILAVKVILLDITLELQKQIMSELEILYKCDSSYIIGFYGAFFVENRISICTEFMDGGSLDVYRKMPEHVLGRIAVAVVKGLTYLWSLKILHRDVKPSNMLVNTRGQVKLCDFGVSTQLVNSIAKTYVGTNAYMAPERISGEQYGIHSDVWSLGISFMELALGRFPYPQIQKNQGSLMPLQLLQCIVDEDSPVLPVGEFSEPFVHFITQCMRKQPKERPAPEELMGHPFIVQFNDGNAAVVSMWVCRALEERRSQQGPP
T11 sequence (P42336 whole entry C420R): as the sequence (P42336 whole entry M1043I) above, with C420R, I1043M counted along it
T1 sequence (P48736 whole entry): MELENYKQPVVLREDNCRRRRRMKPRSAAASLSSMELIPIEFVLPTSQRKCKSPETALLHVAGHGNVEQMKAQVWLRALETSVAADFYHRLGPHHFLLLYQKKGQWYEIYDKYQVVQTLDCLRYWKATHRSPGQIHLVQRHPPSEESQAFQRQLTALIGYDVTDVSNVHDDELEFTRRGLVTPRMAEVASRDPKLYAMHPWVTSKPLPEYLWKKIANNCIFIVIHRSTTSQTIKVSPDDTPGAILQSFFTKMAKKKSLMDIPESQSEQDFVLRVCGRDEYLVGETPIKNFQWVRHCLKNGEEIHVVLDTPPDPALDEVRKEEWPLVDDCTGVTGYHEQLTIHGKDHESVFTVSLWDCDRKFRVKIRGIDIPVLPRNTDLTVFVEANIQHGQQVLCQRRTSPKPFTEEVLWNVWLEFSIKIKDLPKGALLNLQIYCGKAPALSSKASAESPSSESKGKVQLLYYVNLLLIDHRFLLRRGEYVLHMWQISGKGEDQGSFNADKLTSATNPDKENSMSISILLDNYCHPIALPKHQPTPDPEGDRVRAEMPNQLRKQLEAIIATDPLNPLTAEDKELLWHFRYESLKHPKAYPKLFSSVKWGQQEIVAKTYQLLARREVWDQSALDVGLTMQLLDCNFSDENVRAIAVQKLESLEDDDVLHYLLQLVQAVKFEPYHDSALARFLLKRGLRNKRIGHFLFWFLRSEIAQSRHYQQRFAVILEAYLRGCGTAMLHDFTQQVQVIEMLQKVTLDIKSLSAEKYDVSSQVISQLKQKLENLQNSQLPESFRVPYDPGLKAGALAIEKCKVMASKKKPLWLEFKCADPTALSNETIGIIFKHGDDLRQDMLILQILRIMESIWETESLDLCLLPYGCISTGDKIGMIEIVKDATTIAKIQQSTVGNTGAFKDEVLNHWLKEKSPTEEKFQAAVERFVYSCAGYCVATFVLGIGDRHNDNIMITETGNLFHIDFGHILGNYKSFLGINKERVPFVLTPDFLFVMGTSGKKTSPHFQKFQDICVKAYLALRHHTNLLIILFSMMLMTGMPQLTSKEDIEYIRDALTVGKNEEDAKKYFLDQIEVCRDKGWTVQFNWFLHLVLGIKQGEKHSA
T6 sequence (P42336 whole entry E545A): as the sequence (P42336 whole entry M1043I) above, with E545A, I1043M counted along it
T3 sequence (P42336 whole entry E542K): as the sequence (P42336 whole entry M1043I) above, with E542K, I1043M counted along it
T4 sequence (P00519 whole entry): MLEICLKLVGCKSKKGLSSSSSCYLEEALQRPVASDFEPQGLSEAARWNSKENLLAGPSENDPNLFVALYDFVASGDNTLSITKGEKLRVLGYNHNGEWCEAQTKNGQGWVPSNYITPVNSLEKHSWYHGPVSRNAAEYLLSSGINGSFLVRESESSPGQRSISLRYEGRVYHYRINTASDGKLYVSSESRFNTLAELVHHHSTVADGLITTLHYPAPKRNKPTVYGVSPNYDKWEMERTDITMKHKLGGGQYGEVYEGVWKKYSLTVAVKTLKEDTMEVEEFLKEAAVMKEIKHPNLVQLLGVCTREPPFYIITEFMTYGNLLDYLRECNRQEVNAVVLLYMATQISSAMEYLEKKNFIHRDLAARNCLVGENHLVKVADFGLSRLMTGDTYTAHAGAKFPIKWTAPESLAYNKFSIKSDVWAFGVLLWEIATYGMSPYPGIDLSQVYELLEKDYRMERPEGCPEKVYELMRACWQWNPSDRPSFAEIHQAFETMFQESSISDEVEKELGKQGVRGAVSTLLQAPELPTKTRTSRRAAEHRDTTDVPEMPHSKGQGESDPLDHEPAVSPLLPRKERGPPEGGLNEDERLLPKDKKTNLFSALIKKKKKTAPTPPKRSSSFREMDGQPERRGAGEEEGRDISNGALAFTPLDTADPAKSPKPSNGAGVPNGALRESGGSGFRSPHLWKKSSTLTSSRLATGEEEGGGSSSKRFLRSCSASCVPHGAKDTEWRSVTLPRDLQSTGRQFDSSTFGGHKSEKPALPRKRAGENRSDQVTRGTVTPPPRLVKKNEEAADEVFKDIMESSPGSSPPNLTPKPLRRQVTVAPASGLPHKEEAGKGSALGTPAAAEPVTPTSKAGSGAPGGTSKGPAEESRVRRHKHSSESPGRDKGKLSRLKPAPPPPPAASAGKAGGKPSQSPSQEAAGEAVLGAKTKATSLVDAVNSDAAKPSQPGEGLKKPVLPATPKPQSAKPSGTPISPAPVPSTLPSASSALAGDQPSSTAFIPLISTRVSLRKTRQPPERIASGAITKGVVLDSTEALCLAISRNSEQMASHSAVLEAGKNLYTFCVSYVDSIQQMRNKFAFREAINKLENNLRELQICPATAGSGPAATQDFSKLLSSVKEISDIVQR

CC(C)(C)N1CCN(Cc2cc3nc(-c4cncc5[nH]ccc45)cc(N4CCOCC4)n3n2)CC1 [CPL302-253]
IC50 (basophils; 25 min, human whole blood, 25 min, read-out: IC50 CD63 expression after basophils activation): 36 nM | IgE (basophil activation, Fig 4D) (basophils; Concentration 1 (unit not given)): 93.65 | IgE (basophil activation, Fig 4D) (basophils; Concentration 3 (unit not given)): 103.18 | IgE (basophil activation, Fig 4D) (basophils; Concentration 10 (unit not given)): 85.97 | IgE (basophil activation, Fig 4D) (basophils; Concentration 33 (unit not given)): 51.03 | IgE (basophil activation, Fig 4D) (basophils; Concentration 100 (unit not given)): 22 | IgE (basophil activation, Fig 4D) (basophils; Concentration 333 (unit not given)): 3.87 | IgE (basophil activation, Fig 4D) (basophils; Concentration 1000 (unit not given)): -1.11 | IgE (basophil activation, Fig 4D) (basophils; Concentration 3333 (unit not given)): 5.06 | IgE (basophil activation, Fig 4D) (basophils; Concentration 10000 (unit not given)): -1.49 | IC50 (basophils; Homo sapiens, basophil CD63 expression, read-out: IC50 (Fig 4D, printed in the picture)): 36.2 nM | Remaining binding (%) (PIK3CG): 94% | Remaining binding (%) (PIK3CD): 1.1% | Remaining binding (%) (PIK3CA(E542K)): 82% | Remaining binding (%) (ABL1-nonphosphorylated): 36% | Remaining binding (%) (MEK5): 35% | Remaining binding (%) (PIK3CA(E545A)): 45% | Remaining binding (%) (PIK3CA(H1047Y)): 0% | Remaining binding (%) (PIK3CA(Q546K)): 99% | Remaining binding (%) (PIK3CB): 42% | Remaining binding (%) (PIK3CA): 96% | Remaining binding (%) (PIK3CA(C420R)): 12% | Remaining binding (%) (PIK3CA(H1047L)): 92% | Remaining binding (%) (PIK3CA(M1043I)): 100% | Remaining binding (%) (ULK2): 33%
